In patent US9486536B2 (Immunomedics, Inc., priority 2013, dated 2016):

Experiments:
[1] = system: NCI-N87 human gastric carcinoma xenografts; test: therapy of NCI-N87 xenografts in nude mice; type: in vivo; conditions: for mean tumor volume (mTV) on day 21: starting mTV 0.256 cm^3
Method: FIG. 3A. Therapy in nude mice bearing s.c. human tumor xenografts using 2.25 mg/kg protein dose (0.064 mg/kg of drug dose) of MAb-P2PDox conjugates twice weekly×2 weeks in nude mice (n=7) with NCI-N87 human gastric carcinoma xenografts.
Tumor size was determined by caliper measurements of length (L) and width (W) with tumor volume calculated as (L×W^2)/2. Tumors were measured and mice weighed twice a week. Mice were euthanized if their tumors reached >1 cm^3 in size, lost greater than 15% of their starting body weight, or otherwise became moribund. Statistical analysis for the tumor growth data was based on area under the curve (AUC) and survival time. Profiles of individual tumor growth were obtained through linear curve modeling. An f-test was employed to determine equality of variance between groups prior to statistical analysis of growth curves. A two-tailed t-test was used to assess statistical significance between all the various treatment groups and non-specific controls. For the saline control analysis a one-tailed t-test was used to assess significance. Survival studies were analyzed using Kaplan-Meier plots (log-rank analysis), using the Prism GraphPad Software (v4.03) software package (Advanced Graphics Software, Inc.; Encinitas, Calif.). All doses in preclinical experiments are expressed in antibody amounts. In terms of drug, 100 μg of antibody (5 mg/kg) in a 20-g mouse, for example, carries 1.4 μg-2.8 μg ([…]) of P2PDox equivalent dose when using an ADC with 3-6 drugs/IgG.
Using this dosing regimen, we examined the therapeutic effect of hRS7-P2PDox in 2 human tumor xenograft models, Capan-1 (pancreatic cancer) and NCI-N87 (gastric cancer). Therapy began 7 days after tumor transplantation in nude mice.
Anti-TROP-2 antibody conjugate, hRS7-P2PDox, was evaluated in nude mice bearing NCI-N87 human gastric cancer xenografts by administering a single bolus protein dose of 9 mg/kg, 6.75 mg/kg, 4.5 mg/kg, 2.25 mg/kg, or 1 mg/kg. The therapy was started when the mean tumor volume (mTV) was 0.256 cm^3.
Further in vivo efficacy studies were performed in nude mice implanted with NCI-N87 human gastric cancer xenografts (FIG. 13A-F).
The effect of varying dosage schedule on anti-tumor efficacy was examined (FIG. 14, FIG. 19A-G). The experiment began 9 days after tumor implantation when mean tumor volume for all groups was 0.383 cm^3, and ended on day 93 (84 days after initiation of therapy).

[2] = system: Capan-1 human pancreatic adenocarcinoma xenografts; test: therapy of Capan-1 xenografts in nude mice; type: in vivo
Method: FIG. 2. Therapy in nude mice bearing s.c. human tumor xenografts using 2.25 mg/kg protein dose (0.064 mg/kg of drug dose) of MAb-P2PDox conjugates twice weekly×2 weeks in nude mice with Capan-1 human pancreatic adenocarcinoma xenografts (n=5).
Tumors were measured and mice weighed twice a week.
At 63 days after Capan-1 tumor injection (with therapy starting at 1 days post-innoculation), 0 of 10 mice were alive in the saline control, 10 of 10 mice were alive in mice treated twice weekly×2 weeks with 45 μg of hPAM4-P2PDox, 2 of 10 mice were alive in mice treated twice weekly×2 weeks with 45 μg of hA20-P2PDox, 0 of 10 mice were alive in mice treated twice weekly×4 weeks with 250 μg of hPAM4-SN-38, and 0 of 10 mice were alive in mice treated twice weekly×4 weeks with 250 μg of h20-SN-38.

[3] = PK in normal mice, serum antibody by ELISA; type: in vivo; conditions: drug substitution 6.8 or 3.7 vs unmodified hRS7
Method: These were analyzed by ELISA for antibody concentration. […] The PK parameters (Cmax, AUC, etc.) were similar.

[4] = system: BxPC3 human pancreatic carcinoma xenografts; test: therapy of BxPC3 xenografts in nude mice; type: in vivo
[5] = serum stability, HIC HPLC; type: in vitro ADME; conditions: human serum, 0.2 mg/mL, 37° C.
Method: Serum stability of prototypical P2PDox conjugate, hRS7-P2PDox, was determined by incubating in human serum at a concentration of 0.2 mg/mL at 37° C.

[6] = system: NCI-N87 gastric carcinoma cells; test: cell binding, conjugate vs unconjugated antibody; set-up: species or system human; conditions: 6 molecules of P2PDox per antibody (not shown)
[7] = system: HIV-1IIIB/MuLV infected splenocytes; test: HIV-1/MuLV infected cell challenge in mice; type: in vivo; conditions: doses of 100-200 μg
Method: P4/D10-P2PDox is tested in vitro for its efficacy in eliminating HIV-1-infected cells among non-infected cells and in a mouse model by removing HIV-1/MuLV (murine leukemia virus) infected syngeneic cells from the intraperitoneal cavity.
A human T-cell line, CEM-1B, with a genetically integrated MuLV genome is infected with HIV-1IIIB, which leads to the production of pseudoviruses with the HIV-1 genome and the MuLV envelope (Adang et al., PNAS USA 1999, 96:12749-753; Hinkula et al., Cells Tissues Organs 2004, 177:169-184). These virus supernatants are used to infect splenocytes from C57B1/6×DBA F1 K^b/d mice transgenic for HLA-A201. Isogenic mice are challenged with HIV-1IIIB/MuLV infected splenocytes i.p. and are immediately given conjugated antibodies or free antibodies i.p. Ten days after challenge, mice are sacrificed and peritoneal cells collected. Peritoneal cells are pelleted and added to 1×10^6 HIV susceptible Jurkat T-cells or human PBMC grown in 24-well plates. From these secondary cultures, supernatant is removed and fresh medium added every 3-4 days. The amount of infectious HIV recovered in the supernatant is measured for 3 weeks by p24 ELISA.
To test the efficacy of P4/D10-P2PDox in vivo, mice are given isogeneic HIV/MuLV-infected cells together with conjugates intraperitoneally.

[8] = system: MDA-MB-468 human breast carcinoma xenografts; test: therapy of MDA-MB-468 xenografts in nude mice; type: in vivo

Substance: hRS7-P2PDox
- mice alive at day 94 ([1]; 45 μg q4dx4): 8 of 9
- mice alive at day 94 ([1]; 90 μg weekly×2): 9 of 9
- effect of 2nd course of therapy ([1]; 2nd course administered after day 70): safely tolerated and led to further regressions of residual tumor
- effect on tumors, one treatment cycle ([1]; 4×45 μg): rapidly regressed all tumors
- effect of second treatment cycle ([1]; second cycle about 2 months after the end of the first cycle): complete regression of all but one
- minimum effective dose ([1]; single bolus protein dose): 2.25 mg/kg
- mean tumor volume (mTV) on day 21 ([1]; single bolus protein dose 2.25 mg/kg): 0.567±0.179 cm^3
- mean tumor volume (mTV) on day 21 ([1]; single bolus protein dose 4.5 mg/kg): 0.264±0.087 cm^3
- mean tumor volume (mTV) on day 21 ([1]; single bolus protein dose 9 mg/kg): 0.211±0.042 cm^3
- minimum single dose for significant survival benefit compared to saline control ([1]; single dose): 45 µg
- single dose giving maximum effect on tumor growth ([1]; single dose): ≥ 90 µg
- mice alive at day 94 ([1]; single dose of 180 μg): 78 of 9
- established tumors regressed ([2]; 4 doses of 45 μg in 2 weeks, therapy began 7 days after transplantation, no re-growth): 100%
- inhibition of tumor growth compared with the SN-38 conjugate of the same antibody ([2]; not shown): more effective at inhibiting tumor growth
- PK parameters (Cmax, AUC, etc.) [3]: similar
- serum concentrations at various times ([3]; single i.v. dose, 30 min to 168 h): no significant differences in serum concentrations
- inhibition of growth compared with hRS7-SN-38 ([4]; PxPC-3 pancreatic cancer (not shown)): substantially more effective
- antitumor effects ([4]; second pancreatic cancer xenograft, 2.25 mg/kg protein dose twice weekly×2 weeks): specific and significant antitumor effects
- release of free drug from the conjugate [5]: no release of free drug
- binding of the antibody moiety vs unconjugated hRS7 [6]: No significant difference in binding
- protection by control conjugates [7]: None of the P2PDox-conjugated control antibodies (hLL1 or hRS7) provide any protection
- antitumor effects ([8]; 2.25 mg/kg protein dose twice weekly×2 weeks): specific and significant antitumor effects
- inhibition of growth compared with hRS7-SN-38 ([8]; not shown): slightly more effective
